The values that follow come from patent EP0298064A2, “Birth control and diagnostic methods” (BIOCARB AB, priority 1987, dated 1989).

The subject of assay [1] is blastocyst implantation in murine endometrial epithelium monolayers. Description: In vitro implantation - mouse model (blastocysts co-cultured with endometrial monolayer). The following applies: for Test impl/total (no. of blastocysts implanting/total no. of blastocysts added to the culture): test medium supplemented with 0.1 mM test oligosaccharide, control medium values stand in the neighbouring column. Format: cell-based. How it is done: In the mouse in vitro implantation system blastocyst implantation in murine endometrial epithelium monolayers was compared in 2 different media: the control medium (i.e. a medium which had supported more than 80% murine blastocyst formation from 2-cell embryos within 72 hours) and test medium (i.e. identical with the control medium except supplemented with 0.1 mM test oligosaccharide).
As control medium we used Earle's minimum essential medium (MEM) (Flow Lab), supplemented with penicillin-G 0.0075 g/l, streptomycin 0.075 g/l, glutamine 1 mM, fetal calf serum 5% and a vegetable protein source 2% (Ultrose-G, LKB, 2216-100). The final osmolality was adjusted to 285 mOsmol/kg and a pH of 7.4.
The mice were F1 hybrid B6D2F1/Bom (from the Laboratory of Animal Breeding and Research Center, Gl.Bomholdt Gȧrd, LTv., 8680 Ry, Denmark). Females aged 26 days and weighing 13-18 g and mature 6 months old males of previously proven fertility were used. They were housed in air-conditioned quarters with pelleted food and water available ad libitum and light between 7.30 a.m. and 7.30 p.m.
The female mice were superovulated with 5 I.U. FSH/LH (Antex, Leo Pharmaceuticals, Denmark) injected intraperitoneally at 9 a.m. day 1. 48 hours later (on day 3), ovulation was induced with 2.5 I.U. HCG. They were caged with males at 1 p.m. and left overnight. Mating was confirmed on the morning of day 4 by the presence of a vaginal plug.
Females were sacrificed at 9 a.m. on day 5. The oviducts were isolated and the 2-cell embryos flushed from the tubes using hand drawn glass pipettes.
Handling the 2-cells embryos outside the CO₂ incubator was carried out in the control medium supplemented with a HEPES buffer 20 mM (Flow Lab. 16-884-49).
After the oviducts were collected, the uterus of each mouse was isolated. The uterus was opened longitudinally and scraped with a rubber policeman on the uterine epithelial surface to col lect endometrial cells. These cells were handled in the HEPES buffered control medium as well. […]

The subject of assay [2] is 667/9E9. Kind of assay: Inhibition by oligosaccharide of 667/9E9 staining of endometrial sections. The following applies: day 4 and 5 sections; addition of 1 mM. The assay is classed as binding, mice. How it is done:
Fixed or unfixed sections were hydrated in Dulbecco's phosphate buffer pH 7.2, containing 0.1% Bovine serum albumin and 0.05% Tween 20. All antibodies and sera were diluted in the same buffer. The sections were incubated for 30 minutes in a 1/20 dilution of normal non immune goat serum […] to prevent nonspecific binding. Monoclonal antibody supernatants were diluted to either 1/10 or 1/20. The sections were overlayered with 50 µl of the primary antibody and incubated overnight in a humidified atmosphere at 4°C. Following this the sections were rinsed 4 times in the buffer and again incubated for 30 minutes in 1/20 normal goat serum. They were then stained with the second antibody, a fluorescein isothiocyanate (FITC) conjugated goat anti-mouse IgM at a final dilution of 1/80. The sections were finally rinsed in the buffer and mounted in 2.5% DABCO (Boehringer Mannheim, Germany) in 80% glycerol.

Assay [3] concerns implantation. Description: In vivo inhibition of implantation in the mouse (intrauterine injection). More on the design: species or system NMRI mice. How it is done:
In this study the effect of structure A, injected into the uteri of naturally mated and unstimulated mice, was investigated.
10 weeks old NMRI mice were caged with NMRI males of previously proven fertility.
At plug day 4 (at 1 p.m.) the mice were anaestezed using mebumal. The abdomen was opened through a midline incision and the genital tract was identified. A 6-0 selk sutur was placed around the vaginal top intraperitoneally. 5µl of Earle's balanced salt solution (EBS) supplemented with 5 mmol/l of structure A or unsupplemented were injected into the uterine horns. The test group contained 20 mice who were injected with supplemented media containing structure A, where as the controls (15 mice) were injected with EBS unsupplemented medium.

For `CC(=O)N[C@H]1[C@H](O[C@H]2[C@@H](O)[C@@H](CO)O[C@@H](O[C@H]3[C@H](O)[C@@H](O)C(O)O[C@@H]3CO)[C@@H]2O)O[C@H](CO)[C@@H](O)[C@@H]1O[C@@H]1O[C@H](CO)[C@H](O)[C@H](O)[C@H]1O` (stereo partly drawn) [structure B, reference compound], the “Test impl/total (no. of blastocysts implanting/total no. of blastocysts added to the culture)” value in assay [1] is given as 92/129.

Turning to `CC(=O)N[C@H]1[C@H](O[C@H]2[C@@H](O)[C@@H](CO)O[C@@H](O[C@H]3[C@H](O)[C@@H](O)C(O)O[C@@H]3CO)[C@@H]2O)O[C@H](CO)[C@@H](O)[C@@H]1O[C@@H]1O[C@H](CO)[C@H](O)[C@H](O)[C@H]1O[C@@H]1O[C@@H](C)[C@@H](O)[C@@H](O)[C@@H]1O` (stereo partly drawn) [structure A], the “inhibition of implantation of mouse embryos (in words)” value in assay [1] (oligosaccharide concentration of 0.1 mM) is recorded as “inhibits the implantation of mouse embryos”. Further, the “Test impl/total (no. of blastocysts implanting/total no. of blastocysts added to the culture)” value in assay [1] is 134/228. The “inhibition of the staining of the endometrial sections by 667/9E9” value in assay [2] is “could be inhibited”. Also, the “inhibition of implantation in vivo (in words)” value in assay [3] (5 mmol/l, 5µl into the uterine horns) is listed as “inhibits implantation in vivo in the mouse”. Further, the Impl/horn in assay [3] (5µl EBS with 5 mmol/l injected into the uterine horns at plug day 4, 20 mice, controls 4.2) was found to be 1.15.
